# Experimental data from patent publication US20180360972A1, “THERAPEUTIC COMPOUNDS” (REGENTS OF THE UNIVERSITY OF MINNESOTA, priority 2017, published 2018).
# Entries after “also recorded” stand apart in the source; their conditions may differ. Like-named read-outs stand apart in the source and are kept apart here.
# What was measured:
# hMC4R = target: T1, hMC4R (Homo sapiens, UniProt P32245); test: AlphaScreen cAMP functional bioassay, hMC4R; assay type: cell-based; conditions: HEK293 cells stably expressing hMC4R
# T1 construct: Flag; expressed in transfected cells
# Protocol: Upon agonist stimulation, melanocortin receptors are known to signal through a Gαs-protein mediated signaling pathway that results in intracellular cAMP accumulation.
# Stable populations were selected for using G418 selection (0.7-1.0 mg/mL) and used in bioassays unless indicated otherwise. In vitro experimental ligands were dissolved to a 10^−2 M stock in DMSO and stored at −20° C. Subsequent dilutions were performed in each assay's specific buffer to achieve the final concentration in the well. The ligands were assayed as TFA salts.
# AlphaScreen cAMP Functional Bioassay
# The AlphaScreen® assay was performed as described by manufacturer.
# Cells were removed from plates using Gibco® Versene solution and pelleted by centrifugation (Sorvall Super T21 high speed centrifuge, swinging bucket rotor) at 800 rpm for five minutes. […] A 10 μL aliquot of cell suspension was counted manually using a hemocytometer after addition of Trypan blue dye (BioRad). Cells were again pelleted by centrifugation, and DPBS was gently aspirated. The pelleted cells were then resuspended in a solution of freshly made stimulation buffer (Hank's Balanced Salt Solution [HBSS 10× [−] sodium bicarbonate] and [−] phenol red, Gibco®], 0.5 mM isobutylmethylxanthine [IBMX], 5 mM HEPES buffer solution [1M, Gibco®], 0.1% bovine serum albumin [BSA] in Milli-Q water, pH=7.4) and anti-cAMP acceptor beads (1.0 unit per well, AlphaScreen®). […] The cells were then stimulated with ligand diluted in stimulation buffer to achieve their final concentrations in the well ranging from 10^−13 to 10^−4 M. The stimulated plates were incubated in a dark laboratory drawer at room temperature for two hours.
# Meanwhile, a biotinylated cAMP/streptavidin donor bead working solution was made by adding biotinylated cAMP (1 Unit/well, AlphaScreen®) and streptavidin donor beads (1 Unit/well, AlphaScreen®) to a lysis buffer (10% Tween-20, 5 mM HEPES buffer solution [1M, Gibco®], 0.1% bovine serum albumin [BSA] in Milli-Q water, pH=7.4). After the two hour stimulation, the biotinylated cAMP/Streptavidin donor bead working solution was added to each well under green light and mixed well by pipetting up and down. The cells were incubated for another two hours at room temperature in a dark drawer at room temperature. The plate was then read on an EnSpire™ Alpha plate reader using a pre-normalized assay protocol set by the manufacturer. Assays were performed with duplicate data points on each plate and repeated in at least three independent experiments.
# Dose response curves were analyzed using the PRISM program (v4.0; GraphPad Inc.).
# male wild type mice = assay type: in vivo; conditions: for energy expenditure vs saline / food intake vs saline / respiratory exchange ratio (RER) vs saline / water intake vs saline: 5 nmols CJL-5-58 or 5 nmols each CJL-1-14 and CJL-1-80
# Protocol: (§1) All experiments were performed in accordance with the Institutional Animal Care and Use Committee (IACUC) at the University of Minnesota. Female and male littermates with mixed background from C57BL/6J and 129/Sv inbred strains were 8 weeks old at the time of surgeries. Mice were individually housed after surgeries and for the remainder of the experiment. Mice were maintained on a 12 hr light/dark cycle (Lights off was at 11:59 AM) in a temperature controlled room (23-25° C.). In the nocturnal feeding paradigm, mice had free access to normal chow (Harlan Teklad 2018 Diet: 18.6% crude protein, 6.2% crude fat, 3.5% crude fiber, with energy density of 3.1 kcal/g). […] Mice had free access to tap water throughout all the experiments. The cannula placement validation studies and conventional cage studies were performed in standard mouse polycarbonate conventional cages provided by University of Minnesota's Research Animal Resources (RAR). Weekly cage changes were conducted by lab research staff.
# (§2) Mice were anesthetize with a mixture of ketamine (100 mg/kg) and xylazine (5 mg/kg) and were positioned in a stereotaxic apparatus (David Kopf Instruments). A 26-gauge cannula (Cat# 81C315GS4SPC; PlasticsOne, Roanoke, Va.) was inserted in the lateral cerebral ventricle at the coordinates 1.0 mm lateral and 0.46 mm posterior to bregma and 2.3 mm ventral to the skull (Franklin, K. B. J. & Paxinos, G. The Mouse Brain in Stereotaxic Coordinates. (Academic Press, 1997)).
# Each mouse was administered hPYY and saline on different days following a crossover design in the nocturnal feeding paradigm. In the nocturnal paradigm, compound is administered 2 hours prior to lights out with free access to food and water throughout the entire experiment. There was at least a 4 day washout period between administration to ensure that normal feeding patterns and body weight returned. Food intake and body weight were manually measured 2, 4, and 6 hours after hPYY or saline administration. A mouse with a validated cannula placement for the TSE cage experiments consumed at least 1.0 g more after hPYY administration compared to saline administration 4 hours post-administration.
# (§3) As stated above, conventional cage experiments were performed in standard mouse polycarbonate conventional cages. […] All experiments followed a cross-over paradigm in which the mouse received saline and compound on different days with a washout period in between each treatment. Statistical analysis was performed using SPSS V23 software (IBM) using a multivariate general linear model followed by a Bonferroni's post hoc test. Results are presented as Mean±SEM. Statistically significant was considered p<0.05.
# male MC4RKO mice = test: ICV administration, conventional cages, male MC4RKO mice; assay type: in vivo
# Protocol: as §1, §2, §3
# In male MC4RKO mice, CJL-5-58 was administered at 5 nmols in both a nocturnal paradigm and a fasting-refeeding paradigm in standard conventional cages (FIG. 15). The dose was well handled in the nocturnal paradigm, but minimal effect was observed.
# [1] = target: mMC4R-NanoLuc and mMC4R-HaloTag homodimer (Mus musculus, UniProt P56450); test: NanoBRET ligand-dependent modulation of BRET signal; conditions: ligand at 10 μM
# Sequence of mMC4R-NanoLuc and mMC4R-HaloTag homodimer (P56450 whole entry): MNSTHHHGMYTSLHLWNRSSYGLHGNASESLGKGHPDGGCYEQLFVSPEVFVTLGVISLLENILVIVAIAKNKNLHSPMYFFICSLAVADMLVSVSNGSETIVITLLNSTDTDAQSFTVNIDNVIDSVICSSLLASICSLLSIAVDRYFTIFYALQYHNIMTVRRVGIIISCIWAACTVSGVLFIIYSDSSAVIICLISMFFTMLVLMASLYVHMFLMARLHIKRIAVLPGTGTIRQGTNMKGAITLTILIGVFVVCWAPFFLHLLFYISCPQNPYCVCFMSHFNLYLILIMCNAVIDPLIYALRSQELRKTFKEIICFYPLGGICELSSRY
# Sequence of mMC4R-NanoLuc and mMC4R-HaloTag homodimer (P56450 whole entry): as above
# Protocol: On the first day, cells were plated into 6 well plates in the morning. In the afternoon of the same day, cells were transiently transfected with mMC4R-NanoLuc® fusion protein and the MC4R-HaloTag® fusion protein by adding FuGene6 Transfection (8 μL/well, Promega), DNA (2 μg/well) in OptiMem medium (Invitrogen) at a total volume of 100 μL/well. […] Cells were incubated with transfection reagent overnight at 5% CO2 at 37° C.
# This provides the background signal and was subtracted from the final experimental signal. Plates were then developed 48 to 60 hours after transfection. Two hours before the plates were developed, 10 μL of a 10× aliquot of the ligand diluted in assay buffer was added to each well to yield the final in well concentration (10^−5, 10^−7, or 10^−9M) of each compound. For the assay buffer control, 10 μL of assay buffer was added instead of compound. […] The standard error of the mean (SEM) was derived from at least three independent experiments.
# T1 sequence (P32245 whole entry): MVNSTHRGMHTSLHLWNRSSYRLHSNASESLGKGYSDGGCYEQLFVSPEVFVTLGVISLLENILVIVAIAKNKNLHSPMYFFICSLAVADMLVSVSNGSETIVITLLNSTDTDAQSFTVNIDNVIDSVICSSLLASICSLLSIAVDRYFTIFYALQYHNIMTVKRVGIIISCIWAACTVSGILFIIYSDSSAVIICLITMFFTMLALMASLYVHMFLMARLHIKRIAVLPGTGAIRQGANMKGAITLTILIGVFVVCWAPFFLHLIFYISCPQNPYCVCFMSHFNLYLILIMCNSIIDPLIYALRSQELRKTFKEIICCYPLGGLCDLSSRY
structure (smiles),measurement,setting,value
"CC(=O)N[C@@H](Cc1cnc[nH]1)C(=O)N[C@H](Cc1ccccc1)C(=O)N[C@@H](CCCNC(=N)N)C(=O)N[C@@H](Cc1c[nH]c2ccccc12)C(=O)NCCCOCCOCCOCCCNC(=O)COCC(=O)N[C@@H](Cc1cnc[nH]1)C(=O)N[C@H](Cc1ccc2ccccc2c1)C(=O)N[C@@H](CCCNC(=N)N)C(=O)N[C@@H](Cc1c[nH]c2ccccc12)C(N)=O [CJL-5-58, Ac-His-DPhe-Arg-Trp-(PEDG20)-His-DNal(2′)-Arg-Trp-NH2]",cAMP agonist potency (in words),hMC4R,single digit nanomolar agonists
same,"RER, CJL-5-58 vs co-administration of CJL-1-14 and CJL-1-80",male wild type mice; fasting paradigm,"significant differences in RER at the 2, 3, 6, and 7 hour time points"
same,activity vs saline,male wild type mice; fasting paradigm,no significant differences were observed in activity
same,"energy expenditure, CJL-5-58 vs co-administration of CJL-1-14 and CJL-1-80",male wild type mice; fasting paradigm,significantly higher for CJL-5-58 at the 13 and 17 hour time points
same,"food intake, CJL-5-58 vs co-administration of CJL-1-14 and CJL-1-80",male wild type mice; fasting paradigm,significant differences in the food intake at 2 and 4 hour time point
same,number of mice that died,male wild type mice; fasting paradigm,one
same,energy expenditure reached after treatment,"male wild type mice; fasting paradigm, 5 nmol dose, baseline c.a. 12",17 to 19 kcal/h/kg
same,energy expenditure vs saline,male wild type mice; fasting paradigm,"significantly lower for the first 3 hours post-treatment; also recorded: increased energy expenditure is observed 15, 17, and 21 hours after compound administration"
same,food intake vs saline,male wild type mice; fasting paradigm,decrease in food intake up to 12 hours after administration
same,respiratory exchange ratio (RER) vs saline,male wild type mice; fasting paradigm,significantly lower RER was observed for the first 9 hours and at 17 hours
same,water intake vs saline,male wild type mice; fasting paradigm,"decrease in water intake was observed with 5 nmols of CJL-5-58 at time points 4, 6, 8, 10, and 12 hours"
same,number of adverse reactions,"male wild type mice; fasting paradigm, within 30 minutes of injection",four
same,time to recovery from adverse reactions,male wild type mice; mice experiencing adverse reactions,< 1 h
same,activity vs saline,male wild type mice; nocturnal paradigm,increase in activity was observed during the first 5 hours after administration
same,"any parameter, CJL-5-58 vs co-administration of CJL-1-14 and CJL-1-80",male wild type mice; nocturnal paradigm,no significant differences were observed for any parameter
same,number of adverse reactions,male wild type mice; nocturnal paradigm,2
same,number of mice that died,male wild type mice; nocturnal paradigm,one
same,energy expenditure vs saline,male wild type mice; nocturnal paradigm,"increase in energy expenditure was observed 5, 13, 15, and 16 hours after treatment"
same,food intake vs saline,male wild type mice; nocturnal paradigm,no significant effect was observed
same,respiratory exchange ratio (RER) vs saline,male wild type mice; nocturnal paradigm,significantly lowered RER values only until 2 hours after administration
same,water intake vs saline,male wild type mice; nocturnal paradigm,no difference in water intake was observed
same,toxicity,"male MC4RKO mice; ICV 2.5 to 5 nmols, conventional cages",Some toxicity was observed
same,adverse reactions,"male MC4RKO mice; fasting-refeeding, 5 nmols",some signs of adverse reactions
same,body weight vs saline,"male MC4RKO mice; fasting-refeeding, 5 nmols",no effect on mouse body weight
same,food intake vs saline,"male MC4RKO mice; fasting-refeeding, 5 nmols","decreased food intake at 2, 4, 6, 8 and 24 hours after compound administration"
same,body weight vs saline,"male MC4RKO mice; nocturnal paradigm, 5 nmols",significant increase in body weight 6 hours after compound administration
same,food intake vs saline,"male MC4RKO mice; nocturnal paradigm, 5 nmols",immediate reduction in food intake 2 hours after compound administration
same,tolerability,"male MC4RKO mice; nocturnal paradigm, 5 nmols",well handled; also recorded: looked healthy
same,reduction in BRET signal compared to basal signal,[1],~8%
